Seven substances from patent publication EP4741414A1, “PEPTIDE HAVING CELL MEMBRANE PERMEABILITY AND SCREENING METHOD THEREFOR” (priority 2023, dated 2025) can be followed below.

Primed or numbered codes have the meaning given here. No end group written: not given here. PEG8′ = PEG8 linker (eight-unit polyethylene glycol spacer); FAM = fluorescein amidite

One series relates to A549 cells. Put plainly: Intracellular delivery of Alexa 647-labeled IgG-peptide conjugates to A549 cells. Format: cell-based. Conditions: for cell-type-selective plasma membrane-penetrating activity: A549 cells versus macrophages, 1 µM, FIG. 16; for intracellularly delivered amount into A549 cells: final concentration 1 µM, uptake time 1 h, compared with T001, T006 conjugates, FIG. 15. The procedure: Cells 1 hour after the addition of the protein solution were observed and photographed with an all-in-one fluorescence microscope BZ-X810 (Keyence Corporation) in the same manner as in Experimental Example 14 except that A549 cells cultured in the same manner as in Experimental Example 11 were used, followed by image analysis with software BZ-X800 Analyzer included therein. The uptake ratios of the proteins at an uptake time of 1 hour, which were each determined from the ratio of the brightness (integrated) of a red color to the brightness (integrated) of a blue color, were compared to each other. The results are shown in FIG. 15 (in the figure, the height of a bar represents the average of "n" values (n=2 to 3) and an error bar represents its standard deviation).

The test system of a further series is THP-1 macrophages. Put plainly: Intracellular delivery of Alexa 647-labeled IgG-peptide conjugates to THP-1 macrophages. The conditions noted are these: for intracellular delivery amount of IgG: final concentration 5 µM, versus IgG, FIG. 12, FIG. 13; for intracellular delivery amount of IgG / intracellularly delivered amount into macrophages: uptake time 1 h; for intracellularly delivered amount into macrophages: final concentration 1 µM, compared with R001, R005 conjugates, FIG. 14; for cell-type-selective plasma membrane-penetrating activity: macrophages versus A549 cells, 1 µM, FIG. 16. The series is classed as cell-based. The text has this: The reaction liquid was applied to a Zeba spin desalting column (7K MWCO) equilibrated with PBS, and an unreacted cross-linking agent was removed. Thus, an IgG fraction was recovered. The peptides (synthesized by Eurofins Genomics K.K., the amino acid sequences of the peptides that are each conjugated with the IgG are shown in the following table) obtained by the above-mentioned screening, the peptides each including an amino acid sequence and each having C at its N-terminal, were each dissolved in DMSO so that a 10 mM DMSO solution was obtained. The DMSO solution of the peptide whose molar amount was 5 times as large as that of the IgG was added to the recovered IgG fraction, and EDTA was further added to the mixture so that its final concentration was 1 mM, followed by stirring by inversion at 25°C for 1 hour. After that, a fivefold molar amount of cysteine was added to the mixture, and the whole was stirred by inversion at 25°C for 30 minutes. The reaction liquid was applied to a Zeba spin desalting column (7K MWCO) equilibrated with PBS, and the peptide and cysteine that were unreacted, and EDTA were removed. Thus, an IgG-peptide conjugate was recovered.
The assay was conducted using THP-1 macrophages, which had been seeded in a 96-well plate at 20,000 cells/well, and had already been activated with PMA, IFN γ, and LPS. […] Images acquired with the all-in-one fluorescence microscope BZ-X810 (Keyence Corporation) were analyzed using the accompanying software BZ-X800 Analyzer. The uptake ratio at an uptake time of 1 h was compared based on the ratio of integrated red fluorescence intensity to integrated blue fluorescence intensity.
The uptake ratios of the proteins at an uptake time of 1 hour, which were each determined from the ratio of the brightness (integrated) of a red color to the brightness (integrated) of a blue color, were compared to each other.

In series [1] the test system is three-dimensional skin model EpiDerm Full Thickness 400.
Protocol: A three-dimensional skin model EpiDerm Full Thickness 400 was prepared in accordance with the manual of its manufacturer in the same manner as in Experimental Example 8. […] As a control, the known cell-penetrating peptide TAT (the sequence obtained by removing C at the N-terminal from the amino acid sequence shown in SEQ ID NO: 51) was used, and the N-terminal side thereof was modified with FAM (similarly synthesized by Eurofins Genomics K.K., theoretical molecular weight: 1,979.2).
100 Microliters of a 1% DMSO-containing PBS solution of each of the FAM-modified peptides was added to a central portion on the donor side of a cup in which the skin model was built to initiate the penetrability assay (n=3). After incubation at 37 °C under 5% CO2 for 24 h, the medium outside the cup was collected, and the concentration of peptide that penetrated the skin model was quantified fluorometrically using a microplate reader (TECAN Spark; excitation wavelength: 494 nm, emission wavelength: 521 nm).

Regarding CGGSRVVSYLAEYH [R005], in the series with A549 cells, the “cell-type-selective plasma membrane-penetrating activity” value is given as “cell-type-selective plasma membrane-penetrating activity in A549 cells” and the “intracellularly delivered amount into A549 cells” value is “greater increase in the intracellularly delivered amount into A549 cells”.

As for CGKEGGSRWLIFHYMLLGG [T005], the “intracellular delivery amount of IgG” value in the series on THP-1 macrophages is on record as “increased the intracellular delivery amount of IgG”.

Take CLFKAWLGVYH [R001]: in the series on A549 cells, the “cell-type-selective plasma membrane-penetrating activity” value is “cell-type-selective plasma membrane-penetrating activity in A549 cells” and the “intracellularly delivered amount into A549 cells” value is on record as “greater increase in the intracellularly delivered amount into A549 cells”.

On to CRWPLWMWFVW [T001], for which, in the series with THP-1 macrophages, the “intracellularly delivered amount into macrophages” value is “greater increase in the intracellularly delivered amount into macrophages”, the “intracellular delivery amount of IgG” value was “increased the intracellular delivery amount of IgG” and the “cell-type-selective plasma membrane-penetrating activity” value was “cell-type-selective plasma membrane-penetrating activity in macrophages”.

On to CRYYAHWLHYM [T006], for which, in the series on THP-1 macrophages, the “intracellularly delivered amount into macrophages” value is given as “greater increase in the intracellularly delivered amount into macrophages”, the “intracellular delivery amount of IgG” value is “increased the intracellular delivery amount of IgG” and the “cell-type-selective plasma membrane-penetrating activity” value is reported as “cell-type-selective plasma membrane-penetrating activity in macrophages”.

As for “CYGRKKRRQRRR (CYGRKKRRQRRR-NH2; also: conjugated to Alexa 647-IgG via maleimide-PEG2-NHS) [TAT, Alexa 647-labeled IgG bonded with known membrane-permeable peptide TAT via Maleimide-PEG2-NHS Ester, reference compound]”, the “intracellular delivery amount of IgG” value in the series on THP-1 macrophages was “no increase in cellular translocation was observed”.

Take “FAM-labeled SEQ ID NO: 40 peptide: N-terminal side of the peptide represented by SEQ ID NO: 40 modified with fluorescein amidite (FAM) through a PEG8 linker ({FAM-PEG8′}-RWNCVSCAFL; cysteine pairing not given here)”: the “penetrability (ratio of penetrated amount outside the cup to added amount)” value in series [1] is 49.8±10.0%.
